The source of these data is patent US5157019A, “Serine protease inhibitors” (Monsanto Company, priority 1991, dated 1992).

Bridge positions count the residues as written; N and C are the ends. Ends that are not written are not given here.

Holding throughout (assay type): biochemical
For one experiment, the target named is T1, Cathepsin G (Homo sapiens, UniProt P08311).
T1 construct: purchased Elastin Products Company (EPC) SG-45
T1 sequence (P08311 21-255): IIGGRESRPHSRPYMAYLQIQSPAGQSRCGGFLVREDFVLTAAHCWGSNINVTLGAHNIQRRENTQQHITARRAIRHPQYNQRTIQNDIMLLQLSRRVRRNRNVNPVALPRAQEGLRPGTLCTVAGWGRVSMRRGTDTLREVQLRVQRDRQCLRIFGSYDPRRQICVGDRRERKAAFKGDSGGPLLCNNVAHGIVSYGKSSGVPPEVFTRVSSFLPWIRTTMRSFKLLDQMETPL
Put plainly: Cathepsin G assay (Suc-Ala-Ala-Pro-Phe-pNA, 410 nm). The procedure: Reference: Elastin Products Company (EPC) technical data sheet, cathepsin G, No. SG-45.
Method: Spectrophotometric rate determination
A) Buffer; 0.1M Tris, pH 7.5 at 25° C.
B) Substrate; 60 mM Suc-Ala-Ala-Pro-Phe-pNA obtained from Sigma Chemical Company. Solution prepared by dissolving 50 mg substrate in 1.3 ml of 1-methyl-2-pyrrolidinone. Stored at 5° C.
C) Peptide Inhibitors; 200 μM HCl salt. Depending on peptide solubility, dissolved in buffer or DMSO and then buffer added for a final concentration of 10% DMSO.
D) Enzyme; Cathepsin G, EPC SG-45, lot 85117 used for all assays, 0.0077 mg protein per mg solid determined by supplier by Bradford method. Enzyme was dissolved in buffer at a concentration of approx. 5 mg/ml solid. Solution stored on ice, used within 2 hours.
Pipetted the following into semi-micro quartz cuvettes: 0.3 ml buffer, 0.15 ml peptide solution and 0.5 ml of substrate solution. Equilibrate for 5 min. at 25° C., then add 0.05 ml of enzyme solution and monitor the release of pNA spectrophotometrically at 410 nm for at least 3 minutes. The controls contain either 0.45 ml of buffer or 20% DMSO in buffer (for a final concentration of 10% DMSO).
The rate (O.D./min) is obtained as an average over 3 minutes. [formula]

A further experiment deals with Thrombin (Homo sapiens, UniProt P00734). Nature of the experiment: Coagulation inhibition assay, thrombin (fibrinogen clotting end point). To be noted: 40 μM peptide. As for the experimental part:
Inhibitory activity of subject peptides toward thrombin and Factor Xa were done in the following manner. Mix 100 μL Thrombin (3.125 units/ml, 1.125 μg/ml) in TAB with […] Peptide in TAB and incubate for 1 minute at 37° C. Add 50 μL Fibrinogen (2 mg/ml)and measure clotting end point (in seconds) in a Fibrometer (BBL) TAB=Thrombin Assay Buffer: 0.15M NaCl, 6.6 gm/L PEG-6000, 0.01M Imidazole, 0.01 CaCl2, pH 7.4

The target in a further experiment is T2, HUMAN SPUTUM ELASTASE (Homo sapiens, UniProt P08246).
T2 construct: HUMAN SPUTUM ELASTASE; purchased Elastin Products Company SE563; host or cells: human sputum (from the product name)
T2 sequence (P08246 30-267): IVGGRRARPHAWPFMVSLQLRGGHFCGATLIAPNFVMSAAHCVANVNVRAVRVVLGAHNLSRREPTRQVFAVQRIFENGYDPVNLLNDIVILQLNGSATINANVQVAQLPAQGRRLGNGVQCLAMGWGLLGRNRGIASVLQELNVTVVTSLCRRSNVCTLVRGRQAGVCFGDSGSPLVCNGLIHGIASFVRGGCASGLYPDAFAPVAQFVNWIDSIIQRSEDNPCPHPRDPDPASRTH
Nature of the experiment: Elastase assay (MeO-Suc-Ala-Pro-Val-pNA). To be noted: 200 μM peptide. The procedure: Enzyme used is "HUMAN SPUTUM ELASTASE®" which is an enzyme which is the target protease for α1 antitrypsin from Elastin Products Company, Catalog No. SE563, lot 85071, 875 units/mg as determined by supplier with N-Suc-Ala-Ala-Ala-pNA; prepared at 0.2 mg/mL in 0.1M Tris·HCl, pH 8.8 at 37 degrees C. An amount of enzyme is used to give approximately 0.1 change in Absorbance/min; which in this assay was 1 μg.
The substrate is MeO-Suc-Ala-Pro-Val-pNA, Sigma Catalog No. M-4765. About 50 mg of the substrate is dissolved in 1 ml of 1-methyl-2-pyrrolidinone and diluted to 33 mls. with 0.1M Tris-HCl, pH 7.5, containing 0.5M NaCl, and 0.01 wt % sodium azide.
Peptide solutions are prepared at 500 μM, using 1.5% of the final volume of DMSO first and diluting with distilled water (DW) or 0.1M Tris.HCl, pH 8.8 at 37 degrees C. [formula]

Another experiment addresses T3, tPA (Homo sapiens, UniProt P00750).
T3 construct: Enzyme tPA, 2 chain activity standard; purchased American Diagnostica, Inc. 116
Put plainly: Tissue plasminogen activator (tPA) assay (S2288). The note with it: for inhibition at 10 µM: 10 μM peptide. As for the experimental part:
Substrate H-D-Ile-Pro-Arg-pNA·2HCl (S2288, Kabi), 10 mM in deionized water; may be frozen for future use.
Buffer 50 mM Tris·HCl, pH 7.4 containing 0.01% Tween 80.
Inhibitor […] in deionized water.
Enzyme tPA, 2 chain activity standard (Catalog #116, American Diagnostica, Inc.); stock solution=10 μL of original solution per mL in buffer.
Mix 200 μL of buffer, 200 μL of deionized water (control) or inhibitor solution and 40 μL of substrate solution. Incubate for 2 min. at 37° C., add 40 μL of enzyme, mix, and measure rate spectrophotometrically at 405 nm for about 5 min. Inhibition (%) is calculated in the same manner as in previous assays.

Another experiment addresses T4, C1s (Homo sapiens, UniProt P09871).
T4 construct: prepared from pooled human plasma; from tissue; host or cells: pooled human plasma
T4 sequence (P09871 16-688): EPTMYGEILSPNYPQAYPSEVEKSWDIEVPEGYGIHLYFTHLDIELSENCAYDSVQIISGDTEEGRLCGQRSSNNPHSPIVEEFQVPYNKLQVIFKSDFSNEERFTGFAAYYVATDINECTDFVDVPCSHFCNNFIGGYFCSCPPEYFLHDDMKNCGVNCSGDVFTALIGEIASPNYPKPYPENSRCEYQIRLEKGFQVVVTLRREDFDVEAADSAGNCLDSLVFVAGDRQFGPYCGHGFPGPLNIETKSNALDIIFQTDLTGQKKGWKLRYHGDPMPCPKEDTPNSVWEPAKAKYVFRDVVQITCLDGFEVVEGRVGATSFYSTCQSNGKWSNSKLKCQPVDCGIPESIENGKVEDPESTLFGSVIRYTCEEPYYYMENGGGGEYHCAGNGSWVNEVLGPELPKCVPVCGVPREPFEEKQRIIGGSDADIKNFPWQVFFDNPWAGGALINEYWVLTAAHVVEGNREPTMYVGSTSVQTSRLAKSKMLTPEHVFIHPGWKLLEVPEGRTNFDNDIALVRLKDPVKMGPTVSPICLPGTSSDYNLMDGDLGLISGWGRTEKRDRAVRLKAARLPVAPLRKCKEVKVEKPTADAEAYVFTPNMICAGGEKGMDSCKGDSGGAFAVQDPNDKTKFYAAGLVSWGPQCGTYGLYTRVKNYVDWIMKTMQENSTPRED
Nature of the experiment: C1s assay by inhibition of fluid phase C4 activation. The note with it: Table X; μM concentration at which protease was inhibited 50%; read-out: IC50 C1S. As for the experimental part:
(§1) Highly purified C3, C4, Factor D, Factor B, and C1s were prepared from pooled human plasma. Factors B and C4 were radiolabeled by periodate oxidation of sialic acid residues, followed by reduction with tritiated sodium borohydride. In a representative experiment, a solution of 1.2 mg of factor B in 1.8 ml of PBS was treated with 70 μl of 0.1M NaIO4. After 10 min incubation on ice, excess reagent was removed by filtration over "SEPHADEX®" which is a matrix for gel chromatography (1.0 cm×20 cm). To the protein pool was added 60 μl of NaB[^3 H]4 solution and incubated for 30 min on ice. Labeled protein was separated from excess reagent by desalting or dialysis. Human C4 was radiolabeled in the same manner. Radiolabeled proteins were stored at -70° C. in PBS. The specific radioactivity of ^3 H factor B was about 10,000 CPM/μg and that of ^3 H-C4 was 5,000 CPM/μg.
The cleavage of C4 was studied by incubating 10 μg of tritiated C4 with 3-5 ng of C1s at 37° C. for 30 min in 100 μl of PBS (pH 7.10) containing different concentrations of inhibitor. The reaction was stopped by the addition of 2-mercaptoethanol. The extent of cleavage was analyzed by SDS-polyacrylamide gel electrophoresis. The stained bands corresponding to C4α and C4α' were cut out and sliced. The radioactivity of the fragments was measured by liquid scintillation counting. The percent cleavage of the reaction was calculated as follows: [formula]
(§2) Electrophoresis was carried out under reducing conditions in the Laemmli system using slab gel of 8% polyacrylamide. The gels were stained and destained (Fairbanks et al. Biochemistry (1971) 10:2606).
(§3) The percent inhibition of the reaction was calculated according to the following relationship: [formula]
(§4) A: % cleavage without inhibitor
(§5) B: % cleavage with inhibitor
(§6) The concentration inducing 50% inhibition was obtained by plotting the percent inhibition on a probability graph (National Blank Book Co., No. 12-083) on the ordinate and the log of the inhibitor concentration on the abscissa. From this graph, a 50% inhibition concentration IC50 was obtained and this value was employed to express the activity.

For the next experiment, the target named is T5, Factor D (Homo sapiens, UniProt P00746).
T5 construct: prepared from pooled human plasma; from tissue; host or cells: pooled human plasma
T5 sequence (P00746 26-253): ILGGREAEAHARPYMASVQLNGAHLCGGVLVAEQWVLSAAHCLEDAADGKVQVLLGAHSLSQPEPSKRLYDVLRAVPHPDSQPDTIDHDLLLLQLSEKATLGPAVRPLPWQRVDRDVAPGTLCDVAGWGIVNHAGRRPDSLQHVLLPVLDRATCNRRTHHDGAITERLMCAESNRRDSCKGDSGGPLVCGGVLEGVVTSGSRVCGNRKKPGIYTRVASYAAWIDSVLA
Nature of the experiment: Factor D assay by inhibition of fluid phase Factor B activation. To be noted: Table X; μM concentration at which protease was inhibited 50%; read-out: IC50 D. As for the experimental part: as §1
The effect of the peptides on Factor D-dependent cleavage of factor B was studied by incubating 3.5 μg of Factor B, 1.5 μg of C3(H2 O) and 0.2 μl of Factor D at 37° C. for 60 min in Mg-PBS containing different concentrations of inhibitor. Uncleaved Factor B and its fragments, Ba and Bb, were first separated by SDS-PAGE and analyzed as described above. The percent cleavage of the reaction was calculated as follows: [formula]
B=radioactivity (CPM) of uncleaved factor B
Bb=radioactivity (CPM) of fragment Bb
Ba=radioactivity (CPM) of fragment Ba
as §2, §3, §4, §5, §6

The target of a further experiment is Plasmin (Homo sapiens, UniProt P00747). Put plainly: Plasmin assay (S2251). The note with it: 200 μM peptide. The procedure: Substrate H-D-Val-Leu-Lys-pNA·HCl (S2251, Kabi), 10 mM in deionized water; may be frozen for future use.
Chain of Plasmin (P00747 581-810 limits assumed): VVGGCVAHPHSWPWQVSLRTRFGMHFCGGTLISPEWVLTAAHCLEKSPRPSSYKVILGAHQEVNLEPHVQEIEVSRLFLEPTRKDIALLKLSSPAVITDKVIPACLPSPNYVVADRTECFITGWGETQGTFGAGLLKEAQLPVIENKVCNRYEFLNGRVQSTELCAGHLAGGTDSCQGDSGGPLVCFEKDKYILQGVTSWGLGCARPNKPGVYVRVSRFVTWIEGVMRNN
Chain of Plasmin (P00747 97-580 partner limits assumed): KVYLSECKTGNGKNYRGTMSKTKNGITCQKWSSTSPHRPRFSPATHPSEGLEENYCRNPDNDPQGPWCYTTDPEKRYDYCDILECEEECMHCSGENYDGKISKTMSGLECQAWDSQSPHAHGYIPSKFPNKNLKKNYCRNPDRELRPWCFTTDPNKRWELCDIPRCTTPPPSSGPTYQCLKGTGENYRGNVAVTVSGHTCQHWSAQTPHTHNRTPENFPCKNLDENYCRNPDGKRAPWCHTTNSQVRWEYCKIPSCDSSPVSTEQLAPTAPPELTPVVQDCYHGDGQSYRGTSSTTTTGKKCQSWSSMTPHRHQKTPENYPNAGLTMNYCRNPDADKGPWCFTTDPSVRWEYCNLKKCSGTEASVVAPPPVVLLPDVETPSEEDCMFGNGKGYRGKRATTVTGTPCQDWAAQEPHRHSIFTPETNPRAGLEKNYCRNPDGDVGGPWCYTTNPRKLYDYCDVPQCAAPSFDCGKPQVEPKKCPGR
Buffer 50 mM Tris·HCl, pH 7.4 containing 0.01% Tween 80
Inhibitor 400 μM in deionized water
Enzyme Plasmin; 0.5 U/ml in buffer (Cat #P-4895, Sigma Chemical Co., St. Louis, Mo.)
Mix 220 μL buffer, 200 μL deionized water (control) or inhibitor solution and 40 μL substrate. Incubate for 2 min at 37° C. Transfer 230 μL to a microcuvette, add 40 μL of enzyme, mix, and measure rate spectrophotometrically at 405 nm for about 5 min. Inhibition (%) is calculated in the same manner as in previous assays.

Setting [1] is: 200 μM peptide (head of Table IX).

T3 sequence (P00750 311-562 limits assumed): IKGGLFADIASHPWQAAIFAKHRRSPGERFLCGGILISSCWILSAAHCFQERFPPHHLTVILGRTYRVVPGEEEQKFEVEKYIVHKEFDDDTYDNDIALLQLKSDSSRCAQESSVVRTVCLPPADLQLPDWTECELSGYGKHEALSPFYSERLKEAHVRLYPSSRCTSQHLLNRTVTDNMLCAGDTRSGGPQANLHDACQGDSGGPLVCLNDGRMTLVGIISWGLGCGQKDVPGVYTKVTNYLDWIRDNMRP
T3 sequence (P00750 36-310 partner limits assumed): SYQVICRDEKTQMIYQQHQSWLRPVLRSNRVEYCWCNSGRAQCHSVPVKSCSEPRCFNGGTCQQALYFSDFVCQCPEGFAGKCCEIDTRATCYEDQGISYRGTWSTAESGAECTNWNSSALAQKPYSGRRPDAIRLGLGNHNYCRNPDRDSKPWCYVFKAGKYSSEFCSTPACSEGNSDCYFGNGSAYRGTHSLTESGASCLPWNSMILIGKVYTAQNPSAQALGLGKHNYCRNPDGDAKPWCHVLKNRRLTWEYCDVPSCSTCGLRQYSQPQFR

The term inhibition denotes how much of the control response was suppressed. Low readings indicate a weak effect, high ones a strong effect. As for AGRSLNPNRTIVRFNRPFLLII [Peptide 11], the inhibition at 200 µM was 40% against Cathepsin G (setting [1]) and 15% against HUMAN SPUTUM ELASTASE. Moreover, the inhibition at 40 µM against Thrombin was 81%.
With FLEAIPMSIPPTFKANRPFLVFI [Peptide 8], at Cathepsin G (setting [1]), the “Cathepsin G Inhibition” value stood at 44%. Also, the Thrombin inhibition on Thrombin is reported as 30%. Besides, the “Elastase Inhibition” value at HUMAN SPUTUM ELASTASE is 77%.
At tPA (20 μM peptide), “IAGRSLNPNRVTFKANRPFCVFIREVPLNTIIFLGCVANPAVK (disulfide 20-36) [Peptide 45]” came in with an inhibition at 20 µM of 69%.
In general, IC50 refers to the concentration that gives 50% inhibition. As to IDGRIVEGSRVTFKANRPFLVFI [Peptide 18], the IC50 on C1s worked out at 40 µM; on Factor D it was 43 µM.
The matching figures for LQRALEILRVTFKANRPFLVFI [Peptide 14]: 9 µM and 8 µM.
Consider “LRYNKPFILVLFETPGNSLVFLGRISNPATK [Peptide 23]”, for which the “Cathepsin G % inhibition” value on Cathepsin G (100 μM peptide (Tables VI, VIII)) worked out at 0%. Besides, at Cathepsin G (setting [1]), the “Cathepsin G Inhibition” value stood at 0%. Moreover, at HUMAN SPUTUM ELASTASE, the “Elastase Inhibition” value was 0%. Also, the Plasmin % inhibition at Plasmin turned out to be 67%.
For the sequence PFLVFILPNIFLGRVAN [Peptide 43], the inhibition at 10 µM against tPA came to 7%.
The same measure, in the same setting: next, RPFLVFILPGIFLGRVANP [Peptide 38]: 59%; RPFLVFILPNIFLGRVAN [Peptide 42]: 44%.
On the same count and under the same terms, next, RPFLVFILPNIFLGRVANP [Peptide 39]: 55%.
The same measure, in the same setting: the result for RPFLVFILPNIFLRVANP [Peptide 44] reads 55%; that for RPFLVFIRPGDIFLGRVANP [Peptide 40], 39%.
As for RPFLVFIRPNDFLGRVANP [Peptide 41], 10 µM produced 8% inhibition against tPA.
Turning to RPFLVFLPNILRVANP [Peptide 46], the inhibition at 10 µM against tPA was 0%.
Turning to TLLSALVETRVTFKANRPFLVFI [Peptide 9], the “Cathepsin G Inhibition” value at Cathepsin G (setting [1]) came to 41%. On Thrombin, this sequence gave a Thrombin inhibition of 32%.
